Values of other authors, collected in patent publication US8865753B2, “Compounds as cannabinoid receptor ligands” (priority 2007, dated 2014).

Experiments:
[1] = test system: apolipoprotein E knockout mice; conditions: Steffens et al. 2005
mice = conditions: model for post-menopausal osteoporosis, Ralston et al. 2005
microglial = conditions: in vitro; Ramirez et al. 2005
osteoclast = conditions: Ralston et al. 2005
rodent = rodent models of neuropathic, incisional, and both chronic and acute inflammatory pain
rat = rat formalin model of persistent pain; Hanus et al. 1999
animal models = animal models of acute thermal pain, persistent pain, inflammatory pain and neuropathic pain

In the case of (−)-Δ^9-Tetrahydrocannabinol [THC], the “progression of atherosclerotic lesions” value ([1]; low doses) is given as “slowed the progression of atherosclerotic lesions”.
In the case of SR144528, the ovariectomy-induced bone loss (mice) is listed as “reverse ovariectomy-induced bone loss”, the “blockade of the effects of JWH-133” value (microglial) is listed as “blocked” and the osteoclast activity (osteoclast) is listed as “inhibit osteoclast activity”. For the same molecule, the “inhibition of the effects of THC on atherosclerotic lesions” value [1] was “inhibited”.
For `COc1ccc2c(c1)c(CCN1CCOCC1)c(C)n2C(=O)c1cccc(Cl)c1Cl` [GW405833], the “efficacy in pain models” value (rodent) is listed as “efficacious”.
In the case of `CCCC(C)(C)c1ccc2c(c1)OC(C)(C)[C@@H]1CC=C(C)C[C@@H]21` [JWH-133], the “β-amyloid-induced microglial activation and neurotoxicity” value (microglial) is given as “abrogated”.
For `CCCCCCC(C)(C)c1cc(OC)c([C@@H]2C=C(CO)[C@@H]3C[C@H]2C3(C)C)c(OC)c1` [HU-308], the antinociceptive response (rat) is listed as “elicits an antinociceptive response”.
For `CN1CCCCC1Cn1cc(C(=O)c2cc([N+](=O)[O-])ccc2I)c2ccccc21` (stereo not drawn) [AM-1241], the analgesic efficacy (animal models) is given as “robust analgesic efficacy”.
